The source of these data is ChEMBL document CHEMBL1201862, “PubChem BioAssay data set” (2004).

Each structure is given as a SMILES string. Calls of active or inactive are those of the source.

Assay [1] can be described thus: M. tuberculosis H37Rv growth inhibitors, H37Rv strain (AID 1626). It counts as functional.
In assay [2] the target is NS3 (Hepatitis C virus, UniProt A3EZJ3). The experiment in a line: PubChem AID 2173. Set-up: species or system Hepacivirus hominis.
For assay [3], the target named is Lysosomal acid glucosylceramidase (Homo sapiens, UniProt P04062). The experiment in a line: Dose response cell-based high throughput screening assay to identify enhancers of beta-glucosidase activity. [Related pubchem assays: 784 ]. It counts as functional.
Sequence of Lysosomal acid glucosylceramidase (P04062 whole entry): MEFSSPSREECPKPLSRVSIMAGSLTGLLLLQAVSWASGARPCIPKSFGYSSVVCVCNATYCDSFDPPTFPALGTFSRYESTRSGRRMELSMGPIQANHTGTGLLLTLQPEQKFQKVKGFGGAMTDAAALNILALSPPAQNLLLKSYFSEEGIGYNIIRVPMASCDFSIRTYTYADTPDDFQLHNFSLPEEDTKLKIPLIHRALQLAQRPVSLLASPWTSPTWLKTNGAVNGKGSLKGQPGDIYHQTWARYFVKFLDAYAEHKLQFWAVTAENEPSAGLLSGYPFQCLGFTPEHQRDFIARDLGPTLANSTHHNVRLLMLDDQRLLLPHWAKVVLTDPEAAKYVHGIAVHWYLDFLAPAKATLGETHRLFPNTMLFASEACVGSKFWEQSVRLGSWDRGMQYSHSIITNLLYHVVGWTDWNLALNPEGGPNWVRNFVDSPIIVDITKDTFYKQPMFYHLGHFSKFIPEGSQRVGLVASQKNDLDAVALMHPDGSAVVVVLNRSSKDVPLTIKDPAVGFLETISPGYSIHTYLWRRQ
Assay [4] addresses Peroxisome proliferator-activated receptor gamma/Nuclear receptor coactivator 3 (Homo sapiens, UniProt P37231). It counts as functional.
The target in assay [5] is Peroxisome proliferator-activated receptor gamma/Nuclear receptor coactivator 2 (Homo sapiens, UniProt P37231). It counts as functional.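 Also: agonist potency for raising coactivator recruitment to the receptor.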
Assay [6] deals with Peroxisome proliferator-activated receptor gamma/Nuclear receptor coactivator 1 (Homo sapiens, UniProt P37231). It counts as functional.
Assay [7] addresses Ephrin type-A receptor 4 (Mus musculus, UniProt Q03137). The assay can be described thus: EphA4 ligand-binding antagonists – biochemical, colorimetric, mouse EphA4, primary screen (AID 689). It counts as functional.
Assay [8] deals with T1, Corticotropin-releasing factor receptor 2/Corticotropin-releasing factor-binding protein (Homo sapiens, UniProt P24387+Q13324).
T1 sequence (Q13324 whole entry): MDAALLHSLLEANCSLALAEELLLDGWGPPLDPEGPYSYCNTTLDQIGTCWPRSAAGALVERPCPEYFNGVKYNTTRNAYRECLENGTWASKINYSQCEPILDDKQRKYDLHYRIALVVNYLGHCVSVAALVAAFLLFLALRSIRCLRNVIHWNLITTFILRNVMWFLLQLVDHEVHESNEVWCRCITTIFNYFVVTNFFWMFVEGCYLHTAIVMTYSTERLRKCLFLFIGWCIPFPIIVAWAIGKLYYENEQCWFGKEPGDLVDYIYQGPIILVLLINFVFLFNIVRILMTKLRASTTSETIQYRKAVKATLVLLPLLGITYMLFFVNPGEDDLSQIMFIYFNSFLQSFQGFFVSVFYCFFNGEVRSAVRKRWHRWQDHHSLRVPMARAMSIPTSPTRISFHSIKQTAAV
T1 sequence (P24387 whole entry): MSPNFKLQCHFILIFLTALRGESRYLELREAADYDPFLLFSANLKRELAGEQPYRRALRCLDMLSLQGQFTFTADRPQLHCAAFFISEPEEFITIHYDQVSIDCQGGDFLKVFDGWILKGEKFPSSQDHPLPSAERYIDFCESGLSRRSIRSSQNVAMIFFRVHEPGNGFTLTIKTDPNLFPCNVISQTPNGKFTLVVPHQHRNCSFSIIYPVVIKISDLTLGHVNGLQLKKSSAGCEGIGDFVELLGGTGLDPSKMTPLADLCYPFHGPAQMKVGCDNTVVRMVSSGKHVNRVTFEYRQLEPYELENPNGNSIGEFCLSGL
The experiment in a line: activators of CRF receptor 2 with binding protein – uHTS hits, confirmation (AID 602473). It counts as functional. As to conditions: read-out: EC50_Mean.

In assay [9] the target is T2, Endoribonuclease toxin MazF (Escherichia coli K-12, UniProt P0AE70).
T2 sequence (P0AE70 whole entry): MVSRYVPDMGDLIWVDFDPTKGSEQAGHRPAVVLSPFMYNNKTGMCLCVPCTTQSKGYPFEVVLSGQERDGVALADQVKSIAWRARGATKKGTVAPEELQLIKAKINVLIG
The assay can be described thus: activation of MazEF endoribonuclease cleavage – biochemical, fluorescence, single-stranded RNA substrate, uHTS hits, dose response (AID 588481). It counts as functional.

Assay [10] deals with T2, Endoribonuclease toxin MazF. The experiment in a line: substrate-only fluorescence increase artefacts – biochemical, single-stranded RNase substrate, counter-screen for MazEF activator project, dose response (AID 588502). It counts as functional. Background: A counterscreen serves to expose hits that act by an unwanted route or on another target.
The nature of assay [11]: Trypanosoma cruzi growth suppression in host cells – NIH3T3 host cells, beta-gal luminescence, confirmation (AID 2044).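 Also: intracellular parasites grown in NIH/3T3 mouse fibroblasts as host cells; luminescent beta-galactosidase reporter signal from transgenic T. cruzi replicating inside host cells; inhibitors lower the luminescence signal.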 The assay is classed as functional, cell-based.
Assay [12] has as its target T3, Fatty acid synthase (Homo sapiens, UniProt P49327). The experiment in a line: inhibition of human FAS-TE enzyme activity – biochemical, kinetic fluorescence intensity, dose response (AID 624326).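 Also: rate of fluorescence rise from hydrolysis of a fluorogenic O-methyl fluorescein ester substrate.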 The assay is classed as functional.
The nature of assay [13]: NIH3T3 cell viability loss – ATP luminescence, mouse fibroblasts, counter-screen, dose response (AID 2010).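 Also: cells exposed to compound for about 90 hours before reading.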 The assay is classed as functional, cell-based.
The target in assay [14] is T3, Fatty acid synthase. The assay can be described thus: inhibition of human FAS-TE enzyme activity – biochemical, endpoint fluorescence intensity, uHTS hits, dose response (AID 624327).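 Also: fluorescence from hydrolysis of an O-methyl fluorescein acyl ester substrate by the enzyme.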 The assay is classed as functional.
Assay [15] is described as follows: cells.
Assay [16] addresses Dual specificity tyrosine-phosphorylation-regulated kinase 1A (Rattus norvegicus, UniProt Q63470). The assay is classed as biochemical, Homo sapiens.
Assay [17] can be described thus: inhibition of ADAM10 peptide cleavage – biochemical, FRET peptide substrate, recombinant human ADAM10, selectivity assay for ADAM17 exosite inhibitor project, dose response (AID 743259).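 Also: ADAM10 enzyme cleaving a FRET peptide substrate.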
Assay [18] concerns H9c2. The assay can be described thus: cells. It counts as functional, cell-based. As to conditions: Rattus norvegicus, H9c2, Myocardium.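 Also: confirmatory concentration-response retest of ultra-high-throughput screening hits for modulation of myocardial damage; cell death induced by hydrogen peroxide oxidative stress; compound pretreatment for 60 min then peroxide exposure for 2 h; potency is for protecting the cells against peroxide damage rather than for killing them.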
Assay [19] has as its system Vero. The experiment in a line: viability of Vero cells under compound – cytotoxicity control for flavivirus capping enzyme inhibitors (AID 588742). The assay is classed as functional. As to conditions: Chlorocebus sabaeus.
Assay [20] concerns the target Disintegrin and metalloproteinase domain-containing protein 17 (Homo sapiens, UniProt P78536). The assay can be described thus: exosite inhibitors of ADAM17, dose response, biochemical (AID 743260).
The target in assay [21] is Eukaryotic translation initiation factor 4H (Homo sapiens, UniProt Q15056). The experiment in a line: eIF4H binding inhibition – biochemical, uHTS, fluorescence polarization, translation initiation inhibitor project, primary screen (AID 2012). On the technique in general: In fluorescence polarisation assays a small probe gives low polarisation when free and higher when bound to something large.

Assay [22] concerns the target Polyadenylate-binding protein 1 (Homo sapiens, UniProt P11940). The experiment in a line: blockers of PABP interaction with poly(A) – biochemical, fluorescence polarization, […] (AID 2014).
The target in assay [23] is T4, Aryl hydrocarbon receptor (Homo sapiens, UniProt P35869).
T4 sequence (P35869 whole entry): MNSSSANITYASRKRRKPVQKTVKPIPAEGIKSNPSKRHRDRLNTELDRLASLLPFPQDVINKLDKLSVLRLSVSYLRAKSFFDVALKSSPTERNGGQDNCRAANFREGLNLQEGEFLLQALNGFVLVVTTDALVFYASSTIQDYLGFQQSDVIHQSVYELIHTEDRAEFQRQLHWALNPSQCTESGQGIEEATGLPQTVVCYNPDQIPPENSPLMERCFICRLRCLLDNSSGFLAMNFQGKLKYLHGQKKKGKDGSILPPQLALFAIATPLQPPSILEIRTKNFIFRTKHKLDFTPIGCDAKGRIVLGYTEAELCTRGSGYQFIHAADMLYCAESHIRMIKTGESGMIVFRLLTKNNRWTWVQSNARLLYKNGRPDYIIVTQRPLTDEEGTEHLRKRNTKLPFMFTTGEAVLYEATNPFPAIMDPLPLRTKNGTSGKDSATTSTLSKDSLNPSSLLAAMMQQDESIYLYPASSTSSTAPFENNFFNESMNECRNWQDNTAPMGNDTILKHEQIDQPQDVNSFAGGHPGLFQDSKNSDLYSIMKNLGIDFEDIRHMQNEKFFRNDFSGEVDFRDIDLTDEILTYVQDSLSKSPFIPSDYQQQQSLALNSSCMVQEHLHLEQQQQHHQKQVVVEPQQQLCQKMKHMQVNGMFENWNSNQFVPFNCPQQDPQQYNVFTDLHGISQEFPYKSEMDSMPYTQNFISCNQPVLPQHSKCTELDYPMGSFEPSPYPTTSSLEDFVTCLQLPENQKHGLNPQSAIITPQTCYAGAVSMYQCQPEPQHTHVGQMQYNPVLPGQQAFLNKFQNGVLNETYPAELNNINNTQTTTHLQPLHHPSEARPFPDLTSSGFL
The experiment in a line: Luminescence-based cell-based high throughput dose response assay for activators of the Aryl Hydrocarbon Receptor (AHR). [Related pubchem assays: 2796 (Primary screen (AHR activators in singlicate)), 2845 (Confirmation screen (AHR activators in triplicate)), 434939 (Counterscreen (PXR activators in triplicate)), 2804 (Summary (AHR activators))]. The assay is classed as ADME.

T3 sequence (P49327 whole entry): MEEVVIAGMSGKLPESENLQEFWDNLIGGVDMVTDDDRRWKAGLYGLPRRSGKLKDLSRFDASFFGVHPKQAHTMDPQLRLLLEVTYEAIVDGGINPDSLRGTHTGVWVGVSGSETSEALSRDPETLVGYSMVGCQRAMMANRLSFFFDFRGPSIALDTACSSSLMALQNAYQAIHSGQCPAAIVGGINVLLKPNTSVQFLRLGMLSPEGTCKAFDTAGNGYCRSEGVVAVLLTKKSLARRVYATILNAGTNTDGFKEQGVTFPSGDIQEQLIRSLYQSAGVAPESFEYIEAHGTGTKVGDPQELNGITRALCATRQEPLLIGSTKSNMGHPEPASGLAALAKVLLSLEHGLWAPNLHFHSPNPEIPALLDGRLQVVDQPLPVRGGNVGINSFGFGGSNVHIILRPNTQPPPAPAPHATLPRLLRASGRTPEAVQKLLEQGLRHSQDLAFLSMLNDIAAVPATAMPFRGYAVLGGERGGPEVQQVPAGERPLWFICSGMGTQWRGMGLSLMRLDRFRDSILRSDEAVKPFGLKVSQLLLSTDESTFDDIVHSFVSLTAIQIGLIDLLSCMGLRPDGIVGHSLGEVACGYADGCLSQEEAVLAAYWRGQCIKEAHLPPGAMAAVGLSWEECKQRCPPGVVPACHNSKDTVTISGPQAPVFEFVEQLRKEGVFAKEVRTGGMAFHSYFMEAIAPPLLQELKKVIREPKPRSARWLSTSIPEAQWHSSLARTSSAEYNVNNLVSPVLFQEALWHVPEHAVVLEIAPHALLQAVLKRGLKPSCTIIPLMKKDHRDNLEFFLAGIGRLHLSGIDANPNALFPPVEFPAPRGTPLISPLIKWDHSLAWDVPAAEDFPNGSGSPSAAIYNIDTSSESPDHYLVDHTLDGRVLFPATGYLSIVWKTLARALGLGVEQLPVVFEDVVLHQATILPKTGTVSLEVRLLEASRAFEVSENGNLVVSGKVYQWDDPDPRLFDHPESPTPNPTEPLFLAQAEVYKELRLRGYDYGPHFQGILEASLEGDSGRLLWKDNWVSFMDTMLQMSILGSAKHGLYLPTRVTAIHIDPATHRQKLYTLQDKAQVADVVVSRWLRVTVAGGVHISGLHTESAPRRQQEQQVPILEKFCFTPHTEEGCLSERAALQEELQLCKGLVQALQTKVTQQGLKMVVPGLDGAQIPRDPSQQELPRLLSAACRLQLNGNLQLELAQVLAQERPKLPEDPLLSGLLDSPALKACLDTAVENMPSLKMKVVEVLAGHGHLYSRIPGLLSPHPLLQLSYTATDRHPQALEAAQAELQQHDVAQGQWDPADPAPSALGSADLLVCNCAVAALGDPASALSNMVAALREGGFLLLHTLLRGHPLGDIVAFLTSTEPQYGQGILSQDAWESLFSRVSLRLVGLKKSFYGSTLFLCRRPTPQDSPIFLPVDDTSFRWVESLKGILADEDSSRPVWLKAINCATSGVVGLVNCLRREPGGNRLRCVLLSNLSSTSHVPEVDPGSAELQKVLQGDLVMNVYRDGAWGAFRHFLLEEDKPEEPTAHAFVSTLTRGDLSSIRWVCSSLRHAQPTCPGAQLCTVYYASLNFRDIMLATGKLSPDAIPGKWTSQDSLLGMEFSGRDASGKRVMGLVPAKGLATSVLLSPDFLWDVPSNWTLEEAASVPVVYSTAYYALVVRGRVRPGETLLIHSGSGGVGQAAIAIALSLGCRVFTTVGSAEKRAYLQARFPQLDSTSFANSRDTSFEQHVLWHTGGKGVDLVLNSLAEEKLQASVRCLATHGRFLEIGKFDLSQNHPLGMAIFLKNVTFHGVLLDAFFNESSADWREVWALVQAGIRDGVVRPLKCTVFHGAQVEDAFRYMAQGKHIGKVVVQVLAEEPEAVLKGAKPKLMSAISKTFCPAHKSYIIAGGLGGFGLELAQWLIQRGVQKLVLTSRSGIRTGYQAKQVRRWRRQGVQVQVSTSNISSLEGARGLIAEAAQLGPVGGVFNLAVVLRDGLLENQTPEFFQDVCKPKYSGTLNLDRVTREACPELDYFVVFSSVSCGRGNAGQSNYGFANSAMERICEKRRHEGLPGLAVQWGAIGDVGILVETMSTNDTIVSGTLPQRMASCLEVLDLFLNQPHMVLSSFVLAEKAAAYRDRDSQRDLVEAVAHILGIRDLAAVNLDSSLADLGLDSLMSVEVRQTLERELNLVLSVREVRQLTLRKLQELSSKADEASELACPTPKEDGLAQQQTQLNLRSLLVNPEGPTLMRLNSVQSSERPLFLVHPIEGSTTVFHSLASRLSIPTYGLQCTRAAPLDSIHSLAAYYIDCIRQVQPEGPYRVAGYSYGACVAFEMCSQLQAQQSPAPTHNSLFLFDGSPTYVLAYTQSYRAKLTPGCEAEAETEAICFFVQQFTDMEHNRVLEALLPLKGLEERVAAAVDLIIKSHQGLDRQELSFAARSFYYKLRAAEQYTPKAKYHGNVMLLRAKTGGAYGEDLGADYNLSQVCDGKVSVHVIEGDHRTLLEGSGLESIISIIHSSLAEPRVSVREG
Sequence of NS3 (A3EZJ3 whole entry): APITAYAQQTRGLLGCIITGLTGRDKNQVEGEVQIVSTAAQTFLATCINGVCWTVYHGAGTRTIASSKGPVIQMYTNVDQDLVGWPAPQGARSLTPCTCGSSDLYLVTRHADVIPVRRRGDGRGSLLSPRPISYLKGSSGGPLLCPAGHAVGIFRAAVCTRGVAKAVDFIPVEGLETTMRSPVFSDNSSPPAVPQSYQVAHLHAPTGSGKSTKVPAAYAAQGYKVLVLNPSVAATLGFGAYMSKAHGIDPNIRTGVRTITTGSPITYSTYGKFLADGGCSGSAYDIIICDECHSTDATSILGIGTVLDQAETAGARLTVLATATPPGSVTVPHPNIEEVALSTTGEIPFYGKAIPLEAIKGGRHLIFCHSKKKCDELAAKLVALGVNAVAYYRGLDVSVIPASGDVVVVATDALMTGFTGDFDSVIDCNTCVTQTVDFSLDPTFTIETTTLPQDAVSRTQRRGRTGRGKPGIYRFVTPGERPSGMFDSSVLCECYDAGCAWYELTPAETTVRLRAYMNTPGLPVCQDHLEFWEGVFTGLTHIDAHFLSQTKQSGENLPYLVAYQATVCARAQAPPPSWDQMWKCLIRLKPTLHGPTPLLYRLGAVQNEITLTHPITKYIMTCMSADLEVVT
Sequence of Ephrin type-A receptor 4 (Q03137 whole entry): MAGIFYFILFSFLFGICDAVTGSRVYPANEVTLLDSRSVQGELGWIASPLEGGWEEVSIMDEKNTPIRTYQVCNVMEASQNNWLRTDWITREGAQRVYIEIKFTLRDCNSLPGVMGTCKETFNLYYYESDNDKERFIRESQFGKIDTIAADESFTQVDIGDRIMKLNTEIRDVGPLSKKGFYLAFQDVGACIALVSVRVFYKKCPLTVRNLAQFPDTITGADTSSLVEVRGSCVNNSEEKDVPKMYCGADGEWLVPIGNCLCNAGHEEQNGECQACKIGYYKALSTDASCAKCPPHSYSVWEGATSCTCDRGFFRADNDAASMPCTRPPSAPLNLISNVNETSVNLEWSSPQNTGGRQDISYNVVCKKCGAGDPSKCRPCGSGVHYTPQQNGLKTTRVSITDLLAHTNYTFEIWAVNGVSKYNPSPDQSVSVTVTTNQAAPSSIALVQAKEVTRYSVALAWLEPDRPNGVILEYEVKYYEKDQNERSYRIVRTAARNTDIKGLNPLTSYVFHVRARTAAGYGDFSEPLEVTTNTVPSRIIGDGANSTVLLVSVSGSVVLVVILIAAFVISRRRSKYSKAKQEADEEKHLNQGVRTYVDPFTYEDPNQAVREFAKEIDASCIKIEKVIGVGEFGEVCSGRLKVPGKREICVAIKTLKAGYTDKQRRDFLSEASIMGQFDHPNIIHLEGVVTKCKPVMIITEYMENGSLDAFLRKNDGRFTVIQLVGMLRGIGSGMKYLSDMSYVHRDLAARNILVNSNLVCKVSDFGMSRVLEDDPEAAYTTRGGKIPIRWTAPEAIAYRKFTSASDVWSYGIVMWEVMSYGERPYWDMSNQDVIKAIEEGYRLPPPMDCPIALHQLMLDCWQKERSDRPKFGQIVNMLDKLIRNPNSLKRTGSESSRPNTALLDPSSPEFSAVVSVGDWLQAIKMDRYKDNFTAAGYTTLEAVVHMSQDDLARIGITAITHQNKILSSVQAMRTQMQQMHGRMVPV

The IC50 is the point on the concentration scale where inhibition reaches its midpoint. On to `O=C(CCSc1ccc(Cl)cc1)c1cccs1`, for which, in assay [1], the IC50 is > 100 µM (active).
Regarding `Cc1cc2cc(C(c3nnnn3Cc3ccco3)N3CCc4ccccc4C3)c(O)nc2cc1C` (stereo not drawn), the IC50 in assay [2] is given as > 109 µM (not active).
For `CC(OC(=O)c1nsc(Cl)c1Cl)C(=O)NCc1cccs1` (stereo not drawn), the EC50 in [3] was > 50 µM (not active).
Take `CCOC(=O)c1c(NC(=O)CSc2nc(C)cc(C)c2C#N)sc(C(C)=O)c1C`: the EC50 in [4], in assay [5] and in assay [6] was > 79.4 µM (not active) each time.
Consider `CCCn1nc(-c2ccccc2)c2nc3ccccc3nc21`, for which the concentration for half-maximal inhibition (IC50) in assay [7] is 10.3 µM (active). For the same compound, the EC50 in assay [8] is 5.23 µM (active); in [9], > 99 µM (inactive); in assay [10], 61.7 µM (inactive).
For the compound `CN(CCO)c1cc(NCCCN2CCC(Cc3ccccc3)CC2)c2nonc2c1[N+](=O)[O-]`, the results for the EC50 in assay [11], in assay [13] and in assay [15] were < 0.1 µM (active), > 60 µM (not active) and 0.215 µM (active), respectively. The IC50 in assay [12] was 6.52 µM (active); in assay [14] it was 12.2 µM (active).
On to `O/C(=C\c1nc2ccccc2nc1/C=C(\O)c1ccccc1)c1ccccc1`, for which the IC50 in assay [1] was > 100 µM (active).
As a reminder, the AC50 is the midpoint of the concentration-response curve, whichever way the signal moves. With `CN1CCc2nc3sc(C#N)c(N)c3c(-c3cccs3)c2C1`, the EC50 in assay [11] is < 0.1 µM (active); in [13], > 60 µM (not active); in assay [15], 0.06 µM (active). In assay [16], the concentration at half-maximal activity (AC50) is 3.27 µM (active).
What is called CC50 is the concentration at which the toxic effect on the cells reaches its halfway point. `CCOc1ccc(/C=C/C(=O)c2cc(Br)ccc(=O)c2O)cc1`: the IC50 in assay [17] is 17.6 µM (inactive); in assay [18] it was 6.72 µM (active); in [2], 4.35 µM (active); in assay [20], 11.4 µM (inactive). In addition, the 50% cytotoxic concentration (CC50) in [19] is 7 µM (active).
Consider `O=C(NCC(=O)N1CCN(c2ccccc2O)CC1)c1ccc2c(c1)OCO2`, for which the IC50 was 28.2 µM (active) in assay [21] and > 100 µM (inactive) in [22].
On to `Cc1csc(NC(=O)CSc2ccc3nnc(-c4ccncc4)n3n2)n1`, for which the EC50 in assay [23] was 12 µM (not active).
